Converted amounts (≈) assume the structure as drawn.
How the values were obtained:
Format in all cases: functional
Staphylococcus aureus [1] = assay: Antibacterial activity against methicillin-susceptible Staphylococcus aureus Smith
Staphylococcus aureus [2] = assay: Antibacterial activity against methicillin-resistant Staphylococcus aureus KMP9
Streptococcus pneumoniae [3] = assay: Antibacterial activity against penicillin-susceptible Streptococcus pneumoniae 1
Enterococcus faecium = assay: Antibacterial activity against vancomycin-resistant Enterococcus faecium KU1778
Staphylococcus aureus [4] = assay: Antibacterial activity against methicillin-susceptible Staphylococcus aureus Smith infected iv dosed mouse 1 hr after inoculation
Streptococcus pneumoniae [5] = assay: Antibacterial activity against penicillin-susceptible Streptococcus pneumoniae ATCC 49619
Streptococcus pneumoniae [6] = assay: Antibacterial activity against penicillin-resistant Streptococcus pneumoniae KT2524
Streptococcus pyogenes = assay: Antibacterial activity against Streptococcus pyogenes ATCC 12344
Moraxella catarrhalis = assay: Antibacterial activity against Moraxella catarrhalis K1209
Haemophilus influenzae = assay: Antibacterial activity against Haemophilus influenzae TH13
Staphylococcus aureus [7] = assay: Antibacterial activity against methicillin-susceptible Staphylococcus aureus Smith infected twice iv dosed mouse 1 and 4 hrs after inoculation

Row | SMILES | MIC (Staphylococcus aureus [1]) [µg/mL] | MIC (Staphylococcus aureus [2]) [µg/mL] | MIC (Streptococcus pneumoniae [3]) [µg/mL] | MIC (Enterococcus faecium) [µg/mL] | ED50 (Staphylococcus aureus [4]) [mg/kg] | MIC (Streptococcus pneumoniae [5]) [µg/mL] | MIC (Streptococcus pneumoniae [6]) [µg/mL] | MIC (Streptococcus pyogenes) [µg/mL] | MIC (Moraxella catarrhalis) [µg/mL] | MIC (Haemophilus influenzae) [µg/mL] | ED50 (Staphylococcus aureus [7]) [mg/kg]
1 | C=C[C@]1(C)C[C@@H](OC(=O)CSC2CCN(C(=O)/C=C/n3cnc4cnc(N)nc43)CC2)[C@]2(C)[C@H](C)CC[C@]3(CCC(=O)[C@@H]32)[C@@H](C)[C@@H]1O | 0.1 (≈ 0.15 µM) | 0.2 (≈ 0.301 µM) | 0.39 (≈ 0.587 µM) | 0.2 (≈ 0.301 µM) | > 3.13 | – | – | – | – | – | –
2 | C=C[C@]1(C)C[C@@H](OC(=O)CSC2CCN(C(=O)CCn3cnc4c(N5CCCC5)nc(N)nc43)CC2)[C@]2(C)[C@H](C)CC[C@]3(CCC(=O)[C@@H]32)[C@@H](C)[C@@H]1O | 0.39 (≈ 0.53 µM) | 0.39 (≈ 0.53 µM) | 0.2 (≈ 0.272 µM) | 0.39 (≈ 0.53 µM) | > 3.13 | – | – | – | – | – | –
3 | CC[C@]1(C)C[C@@H](OC(=O)CSc2nnc(N)[nH]2)[C@]2(C)[C@H](C)CC[C@]3(CCC(=O)[C@@H]32)[C@@H](C)[C@@H]1O | 0.5 (≈ 1.04 µM) | 2 (≈ 4.18 µM) | – | 0.25 (≈ 0.522 µM) | – | 0.5 (≈ 1.04 µM) | 0.5 (≈ 1.04 µM) | 0.25 (≈ 0.522 µM) | 0.032 (≈ 0.0669 µM) | 0.5 (≈ 1.04 µM) | 6.88
4 | C=C[C@]1(C)C[C@@H](OC(=O)CSC2CCN(C(=O)CCn3cnc4c(N5CCNCC5)ncnc43)CC2)[C@]2(C)[C@H](C)CC[C@]3(CCC(=O)[C@@H]32)[C@@H](C)[C@@H]1O | 0.063 (≈ 0.0856 µM) | 0.063 (≈ 0.0856 µM) | – | 0.032 (≈ 0.0435 µM) | 2.94 | 0.032 (≈ 0.0435 µM) | 0.032 (≈ 0.0435 µM) | 0.016 (≈ 0.0217 µM) | 0.032 (≈ 0.0435 µM) | 1 (≈ 1.36 µM) | –
5 | C=C[C@]1(C)C[C@@H](OC(=O)CSC2CCN(C(=O)CCn3cnc4cnc(N)nc43)CC2)[C@]2(C)[C@H](C)CC[C@]3(CCC(=O)[C@@H]32)[C@@H](C)[C@@H]1O | 0.05 (≈ 0.075 µM) | 0.05 (≈ 0.075 µM) | 0.05 (≈ 0.075 µM) | 0.05 (≈ 0.075 µM) | < 3.13 | 0.125 (≈ 0.187 µM) | 0.063 (≈ 0.0945 µM) | 0.063 (≈ 0.0945 µM) | 0.25 (≈ 0.375 µM) | 2 (≈ 3 µM) | –
6 | C=C[C@]1(C)C[C@@H](OC(=O)CSC2CCN(C(=O)CCn3cnc4c(NC)nc(N)nc43)CC2)[C@]2(C)[C@H](C)CC[C@]3(CCC(=O)[C@@H]32)[C@@H](C)[C@@H]1O | 0.1 (≈ 0.144 µM) | 0.2 (≈ 0.287 µM) | 0.025 (≈ 0.0359 µM) | 0.1 (≈ 0.144 µM) | > 3.13 | – | – | – | – | – | –
7 | C=C[C@]1(C)C[C@@H](OC(=O)CSC2CCN(C(=O)CCn3cnc4cncnc43)CC2)[C@]2(C)[C@H](C)CC[C@]3(CCC(=O)[C@@H]32)[C@@H](C)[C@@H]1O | 0.05 (≈ 0.0767 µM) | 0.05 (≈ 0.0767 µM) | 0.1 (≈ 0.153 µM) | 0.05 (≈ 0.0767 µM) | > 3.13 | – | – | – | – | – | –
8 | C=C[C@]1(C)C[C@@H](OC(=O)CSC2CCN(C(=O)CCn3cnc4ncncc43)CC2)[C@]2(C)[C@H](C)CC[C@]3(CCC(=O)[C@@H]32)[C@@H](C)[C@@H]1O | 0.1 (≈ 0.153 µM) | 0.1 (≈ 0.153 µM) | 0.1 (≈ 0.153 µM) | 0.1 (≈ 0.153 µM) | > 3.13 | – | – | – | – | – | –
9 | C=C[C@]1(C)C[C@@H](OC(=O)CSC2CCN(C(=O)CCn3cnc4c(N)nc(N)nc43)CC2)[C@]2(C)[C@H](C)CC[C@]3(CCC(=O)[C@@H]32)[C@@H](C)[C@@H]1O | 0.05 (≈ 0.0733 µM) | 0.1 (≈ 0.147 µM) | 0.025 (≈ 0.0367 µM) | 0.05 (≈ 0.0733 µM) | > 3.13 | – | – | – | – | – | –
10 | C=C[C@]1(C)C[C@@H](OC(=O)CSC2CCN(C(=O)CCCn3cnc4cnc(N)nc43)CC2)[C@]2(C)[C@H](C)CC[C@]3(CCC(=O)[C@@H]32)[C@@H](C)[C@@H]1O | 0.1 (≈ 0.147 µM) | 0.2 (≈ 0.294 µM) | 0.78 (≈ 1.15 µM) | 0.1 (≈ 0.147 µM) | > 3.13 | – | – | – | – | – | –
11 | C=C[C@]1(C)C[C@@H](OC(=O)CSC2CCN(C(=O)CCn3cnc4c(N5CCNCC5)nc(N)nc43)CC2)[C@]2(C)[C@H](C)CC[C@]3(CCC(=O)[C@@H]32)[C@@H](C)[C@@H]1O | 0.25 (≈ 0.333 µM) | 0.5 (≈ 0.666 µM) | 0.063 (≈ 0.0839 µM) | 0.25 (≈ 0.333 µM) | < 3.13 | 0.063 (≈ 0.0839 µM) | 0.063 (≈ 0.0839 µM) | 0.032 (≈ 0.0426 µM) | 0.25 (≈ 0.333 µM) | 1 (≈ 1.33 µM) | 1.51
12 | C=C[C@]1(C)C[C@@H](OC(=O)CSC2CCN(C(=O)CCn3cnc4c(N5CCNC(C)C5)nc(N)nc43)CC2)[C@]2(C)[C@H](C)CC[C@]3(CCC(=O)[C@@H]32)[C@@H](C)[C@@H]1O (some centres not stated) | 0.25 (≈ 0.327 µM) | 0.25 (≈ 0.327 µM) | – | 0.125 (≈ 0.163 µM) | 2.21 | 0.063 (≈ 0.0823 µM) | 0.063 (≈ 0.0823 µM) | 0.032 (≈ 0.0418 µM) | 0.063 (≈ 0.0823 µM) | 2 (≈ 2.61 µM) | –
13 | C=C[C@]1(C)C[C@@H](OC(=O)CSC2CCN(C(=O)CCn3cnc4c(N5CCC(N)CC5)ncnc43)CC2)[C@]2(C)[C@H](C)CC[C@]3(CCC(=O)[C@@H]32)[C@@H](C)[C@@H]1O | 0.125 (≈ 0.167 µM) | 0.25 (≈ 0.333 µM) | – | 0.063 (≈ 0.084 µM) | 1.5 | 0.016 (≈ 0.0213 µM) | 0.032 (≈ 0.0427 µM) | 0.016 (≈ 0.0213 µM) | 0.063 (≈ 0.084 µM) | 4 (≈ 5.33 µM) | –
14 | C=C[C@]1(C)C[C@@H](OC(=O)CSC2CCN(C(=O)CCn3cnc4c(N5CCCC(N)C5)nc(N)nc43)CC2)[C@]2(C)[C@H](C)CC[C@]3(CCC(=O)[C@@H]32)[C@@H](C)[C@@H]1O (some centres not stated) | 0.25 (≈ 0.327 µM) | 1 (≈ 1.31 µM) | – | 0.25 (≈ 0.327 µM) | 2.21 | 0.063 (≈ 0.0823 µM) | 0.063 (≈ 0.0823 µM) | 0.032 (≈ 0.0418 µM) | 0.125 (≈ 0.163 µM) | 2 (≈ 2.61 µM) | –
15 | C=C[C@]1(C)C[C@@H](OC(=O)CSC2CCN(C(=O)CCn3cnc4c(N)ncnc43)CC2)[C@]2(C)[C@H](C)CC[C@]3(CCC(=O)[C@@H]32)[C@@H](C)[C@@H]1O | 0.2 (≈ 0.3 µM) | 0.39 (≈ 0.585 µM) | 0.78 (≈ 1.17 µM) | 0.39 (≈ 0.585 µM) | > 3.13 | – | – | – | – | – | –
16 | C=C[C@]1(C)C[C@@H](OC(=O)CSC2CCN(C(=O)CCn3cnc4c(N(C)C)nc(N)nc43)CC2)[C@]2(C)[C@H](C)CC[C@]3(CCC(=O)[C@@H]32)[C@@H](C)[C@@H]1O | 0.1 (≈ 0.141 µM) | 0.1 (≈ 0.141 µM) | 0.05 (≈ 0.0704 µM) | 0.1 (≈ 0.141 µM) | > 3.13 | – | – | – | – | – | –
17 | C=C[C@]1(C)C[C@@H](OC(=O)CSC2CCN(C(=O)Cn3cnc4cncnc43)CC2)[C@]2(C)[C@H](C)CC[C@]3(CCC(=O)[C@@H]32)[C@@H](C)[C@@H]1O | 0.2 (≈ 0.314 µM) | 0.2 (≈ 0.314 µM) | 1.56 (≈ 2.45 µM) | 0.2 (≈ 0.314 µM) | – | – | – | – | – | – | –
18 | C=C[C@]1(C)C[C@@H](OC(=O)CSC2CCN(C(=O)CCn3cnc4c(N5CCOCC5)nc(N)nc43)CC2)[C@]2(C)[C@H](C)CC[C@]3(CCC(=O)[C@@H]32)[C@@H](C)[C@@H]1O | 0.2 (≈ 0.266 µM) | 0.2 (≈ 0.266 µM) | 0.1 (≈ 0.133 µM) | 0.2 (≈ 0.266 µM) | – | – | – | – | – | – | –
19 | C=C[C@]1(C)C[C@@H](OC(=O)CSC2CCN(C(=O)CCn3cnc4c(N5CCC(N)CC5)nc(N)nc43)CC2)[C@]2(C)[C@H](C)CC[C@]3(CCC(=O)[C@@H]32)[C@@H](C)[C@@H]1O | 0.25 (≈ 0.327 µM) | 1 (≈ 1.31 µM) | – | 0.25 (≈ 0.327 µM) | 1.86 | 0.063 (≈ 0.0823 µM) | 0.125 (≈ 0.163 µM) | 0.063 (≈ 0.0823 µM) | 0.125 (≈ 0.163 µM) | 2 (≈ 2.61 µM) | –
20 | C=C[C@]1(C)C[C@@H](OC(=O)CSC2CCN(C(=O)CCn3cnc4c(N5CCN(C)CC5)nc(N)nc43)CC2)[C@]2(C)[C@H](C)CC[C@]3(CCC(=O)[C@@H]32)[C@@H](C)[C@@H]1O | 0.125 (≈ 0.163 µM) | 0.125 (≈ 0.163 µM) | – | 0.125 (≈ 0.163 µM) | 8.83 | 0.125 (≈ 0.163 µM) | 0.063 (≈ 0.0823 µM) | 0.063 (≈ 0.0823 µM) | 0.063 (≈ 0.0823 µM) | 2 (≈ 2.61 µM) | –

Reference: ChEMBL document CHEMBL1145592, “Pleuromutilin derivatives having a purine ring. Part 1: new compounds with promising antibacterial activity against resistant Gram-positive pathogens” (2008)
